Data: the supplement of paper PMC3493320
Values joined by “and” are separate entries in the source; they are usually repeats but may differ in a detail not shown here. Equal entries are not always repeated.

Legend:
NCI-H295R [1] = experiment: maximal response (efficacy) relative to DMSO (0%) and doxorubicin (-100%); higher = less growth inhibition; conditions: 48 h
NCI-H295R [2] = experiment: IC50 (antiproliferative, ATP content); conditions: 48 h
Method in brief: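 In 1536-well plates, 1500 adrenocortical carcinoma cells per well were grown overnight in serum-free, ITS-supplemented DMEM before compounds were pin-transferred at 8 final concentrations (0.6 nM to 46 µM). After 48 h at 37 °C and 5% CO2, CellTiter-Glo luminescence was read following 20 min at room temperature and normalised to vehicle and positive-control wells. IC50 values came from logistic curve fits, with compounds lacking any concentration response listed as above the top dose.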

IC50 (NCI-H295R [2]) | SMILES | maximal response (NCI-H295R [1])
 | O=C(N/N=C/c1ccccc1O)c1ccncc1 | -33.1%
 | CCNC(=O)N1CCN(CCCC(c2ccc(F)cc2)c2ccc(F)cc2)CC1.Cl | -34.2%
 | O=C2O[C@](C#CC3CC3)([C@](F)(F)F)C1=CC(Cl)=CC=C1N2 | -38%
 | N[C@H](C(=O)O)[C@@H]1CC(Cl)=NO1 | -39.1%
 | CN1CCC(CN2c3ccccc3Sc3ccccc32)C1.Cl (configuration not stated) | -26.6%
 | CC(C)OC(=O)Nc1ccc2[nH]c(-c3cscn3)nc2c1 | -56.3%
 | O=C1C(O)=C([C@H]2CC[C@H](c3ccc(Cl)cc3)CC2)C(=O)c2ccccc21 | -51%
 | CCCCOc1ccc(CC(=O)NO)cc1 | -24%
 | C/C(=C\c1csc(C)n1)[C@@H]1C[C@@H]2O[C@]2(C)CCC[C@H](C)[C@H](O)[C@@H](C)C(=O)C(C)(C)[C@@H](O)CC(=O)O1 | -57.6%
 | CN[C@H]1CCc2cc(OC)c(OC)c(OC)c2-c2ccc(OC)c(=O)cc21 | -53.1%
 | CCC(CC)(CC(=O)Nc1cccc(/C=C/c2nc(C3CCC3)cs2)c1)C(=O)O | -34.3%
 | Nc1ncnc2[nH]cnc12 | 30.9%
 | Cc1c(C(=O)O)c(O)cc2c1C(=O)c1c(O)c([C@@H]3O[C@H](CO)[C@@H](O)[C@H](O)[C@H]3O)c(O)c(O)c1C2=O | -50.2%
 | CC[C@@]1(O)C(=O)OCc2c1cc1n(c2=O)Cc2cc3c(CN(C)C)c(O)ccc3nc2-1.Cl | -36.8%
 | Nc1c(/N=N/c2ccc(-c3ccc(/N=N/c4cc(S(=O)(=O)[O-])c5ccccc5c4N)cc3)cc2)cc(S(=O)(=O)[O-])c2ccccc12.[Na+].[Na+] | -53.2%
 | Oc1ccc(O)cc1 | -31.2%
 | N[C@@H](Cc1cc(I)c(Oc2cc(I)c(O)c(I)c2)c(I)c1)C(=O)O | -25.6%
 | CN(C)CCCN1c2ccccc2CCc2ccccc21 | -21%
 | O=C(C4=CC(OC)=C(C(OC)=C4)OC)O[C@@H]1C[C@@]3([H])[C@@](C[C@](N5C3)([H])C2=C(CC5)C(C=CC=C6)=C6N2)([H])[C@H]([C@](OC)=O)[C@H]1OC | -51.8%
 | O=C(O)c1cc(O)c2c(c1)[C@H]([C@H]1c3cc(C(=O)O)cc(O)c3C(=O)c3c(O[C@@H]4O[C@H](CO)[C@@H](O)[C@H](O)[C@H]4O)cccc31)c1cccc(O[C@@H]3O[C@H](CO)[C@@H](O)[C@H](O)[C@H]3O)c1C2=O | -34.5%
 | O=C1C(C(O)=C4C([C@@H](O[C@@H]5O[C@@H](C)[C@@H](O[C@@H]6CCCCO6)[C@@H](N)C5)C[C@@]([C@](CO)=O)(O)C4)=C3O)=C3C(C2=C1C=CC=C2OC)=O | -43%
 | CC[C@@]1([C@@H]2O[C@@H]([C@H]3O[C@@](O)(CO)[C@H](C)C[C@@H]3C)C[C@@H]2C)CC[C@H]([C@]2(C)CC[C@]3(C[C@H](O)[C@@H](C)[C@@H]([C@@H](C)[C@@H](OC)C(C)C(=O)[O-])O3)O2)O1.[Na+] (some centres not stated) | -50.4%
 | OC[C@H]1O[C@@H](n2cnc3c(O)ncnc32)[C@H](O)[C@@H]1O | 26.5%
 | CCCc1nc2c(C)cc(-c3nc4ccccc4n3C)cc2n1Cc1ccc(-c2ccccc2C(=O)O)cc1 | -22.7%
 | O=C(N)[C@@](C2=CC=CC=C2)([C@H]3CN(CCC4=CC(CCO5)=C5C=C4)CC3)C1=CC=CC=C1.Br | -31.7%
 | CCC(O)c1ccccc1 (configuration not stated) | -25.2%

IC50 (NCI-H295R [2]) | SMILES | maximal response (NCI-H295R [1])
 | Nc1ccc(O)c(C(=O)O)c1 | -20.8%
 | CCOc1ccc(Cc2nccc3cc(OCC)c(OCC)cc23)cc1OCC.Cl | -39.5%
 | CCC/C=C/C=C/C(=O)O[C@H]1/C(=C/C(=O)OC)C[C@H]2C[C@H]([C@@H](C)O)OC(=O)C[C@H](O)C[C@@H]3C[C@H](OC(C)=O)C(C)(C)[C@](O)(C[C@@H]4C/C(=C/C(=O)OC)C[C@H](/C=C/C(C)(C)[C@]1(O)O2)O4)O3 | -41.4%
 | COC(CNC(=O)c1ccccc1OCC(=O)O)[CH2][Hg][OH] (configuration not stated) | 29%
 | Cl.Cl/C(=C\n1cncn1)c1ccc(Cl)cc1Cl | -28.8%
 | CCc1cccc(N(C)C(=N)Nc2cccc3ccccc23)c1.Cl | -29.2%
 | Cl.O=C(C[C@@H]1NCCC[C@H]1O)Cn1cnc2cc(Br)c(Cl)cc2c1=O | -28.3%
 | O=C(O)Cc1cc(I)c(Oc2ccc(O)c(I)c2)c(I)c1 | -31.4%
 | O[C@@H]1C4=C(C)[C@@H](OC([C@H](O)[C@H]([C@@]6=CC=CC=C6)NC(OC(C)(C)C)=O)=O)C[C@@](C(C)4C)(O)[C@@H](OC(C5=CC=CC=C5)=O)[C@@]([C@]2(OC(C)=O)CO[C@@H]2C[C@@H]3O)([H])[C@]3(C)C1=O | -59.5%
 | O=C(N[C@@H](c1ccccc1)[C@@H](O)C(=O)O[C@H]3C[C@@]4(O)[C@@H](OC(=O)c2ccccc2)[C@@H]5[C@]6(OC(C)=O)CO[C@@H]6C[C@H](O)[C@@]5(C)C(=O)[C@H](OC(C)=O)\C(=C3/C)C4(C)C)c7ccccc7 | -55.9%
 | COC(=O)C1=C(C)NC(C)=C(C(=O)OC(C)(C)CN(C)CCC(c2ccccc2)c2ccccc2)C1c1cccc([N+](=O)[O-])c1.Cl (configuration not stated) | -45.6%
 | Clc1ccc(C(Cn2ccnc2)OCc2csc3c(Cl)cccc23)c(Cl)c1.O=[N+]([O-])O (configuration not stated) | -24.9%
 | O=[N+]([O-])c1cc(I)c(O)c(I)c1 | -32.6%
 | CN(CC=CC#CC(C)(C)C)Cc1cccc2ccccc12 | -34.4%
 | CC(=O)O[C@H]\1CC[C@H]4C(=C/1)/CC[C@@H]2[C@@H]4CC[C@]3(C)[C@@](CC[C@@H]23)(C#C)OC(C)=O | -26.3%
 | CCN(CC)C(=S)SSC(=S)N(CC)CC | -27.3%
 | COc1cc(CNC(=O)CCCC/C=C/C(C)C)ccc1O | -21.6%
 | Cl.Cl.O=C1c2c(O)ccc(O)c2C(=O)c2c(NCCNCCO)ccc(NCCNCCO)c21 | -59.3%
 | O=C3C1=C(NC(N)=N3)NC=C1CCC2=CC=C(C(N[C@H]([C@@]([O-])=O)CCC([O-])=O)=O)C=C2.[Na+].[Na+] | -56.4%
 | CCC(NC(C)C)C(O)c1ccc(O)c(O)c1.CS(=O)(=O)O (configuration not stated) | -36%
 | O=S(=O)([O-])c1ccc2c(/N=N/c3ccc(S(=O)(=O)[O-])c4ccccc34)c(O)c(S(=O)(=O)[O-])cc2c1.[Na+].[Na+].[Na+] | -50.2%
 | O[C@@]1(CC)C[C@H](C2)C[C@@]([C@]7=C(OC)C=C6N(C)[C@]5([H])[C@@](C6=C7)(CC9)[C@](N9CC=C8)([H])[C@]8(CC)[C@@H](OC(C)=O)[C@@](O)5[C@@](OC)=O)([C@](OC)=O)C(NC4=CC=CC=C34)=C3CCN2C1.O=S(O)(O)=O | -54.7% and -52.9%
 | CCc1cc(Cl)c(OC)c(C(=O)NC[C@@H]2CCCN2CC)c1O.Cl | -24.8%
 | Nc1nc(Cl)nc2c1ncn2[C@@H]1O[C@H](CO)[C@@H](O)[C@@H]1F | -29.5%
 | CCCOc1ccc2[nH]c(NC(=O)OC)nc2c1 | -48.4%
 | COc1cc(C)c(Cc2cnc(N)nc2N)cc1OC | -57.4%

IC50 (NCI-H295R [2]) | SMILES | maximal response (NCI-H295R [1])
 | CCc1oc2ccccc2c1C(=O)c1cc(Br)c(O)c(Br)c1 | -59.3%
> 46 µM | O=C1OC(OC(=O)c2cccnc2Nc2cccc(C(F)(F)F)c2)c2ccccc21 (configuration not stated) | 
> 46 µM | O=NN(CCCl)C(=O)NCCCl | 
> 46 µM | N[C@@]([C@H]([C@H]1O)O[C@H]([C@@H]([C@H]1O)O)O)=O | 
> 46 µM | O=C1CC2(CCCC2)CC(=O)N1CCCCN1CCN(c2ncccn2)CC1 | 
> 46 µM | COc3ccccc3N2CCN(CCCN\C1=C\C(=O)N(C)C(=O)N1C)CC2 | 
> 46 µM | CCN1CCN(c2cc3c(cc2F)c(=O)c(C(=O)O)cn3C2CC2)CC1 | 
> 46 µM | Cl.O=C(O)/C=C/c1ccc(Cn2ccnc2)cc1 | 
> 46 µM | O=C(CCBr)N1CCN(C(=O)CCBr)CC1 | 
> 46 µM | CCOC(=O)c1c(C)n(C)c2ccc(O)cc12 | 
> 46 µM | COc1ccc2cc([C@H](C)C(=O)[O-])ccc2c1.[Na+] | 
> 46 µM | CC(C)NC[C@@H](O)COc1ccc(CC(N)=O)cc1 | 
> 46 µM | CC(CNC(=O)c1cccnc1)NC(=O)c1cccnc1 (configuration not stated) | 
> 46 µM | CCCCCCCCCCCCCCCCO | 
> 46 µM | C#Cc1cccc(Nc2ncnc3cc(OCCOC)c(OCCOC)cc23)c1 | 
> 46 µM | Cn1c([N+](=O)[O-])cnc1COC(N)=O | 
> 46 µM | COc1cc(OC)cc(OC)c1 | 
> 46 µM | O=C(O)CCCCCCCC(=O)O | 
> 46 µM | CC(=O)OCC(=O)[C@@]1(OC(C)=O)[C@@H](C)C[C@H]2[C@@H]3C[C@H](F)C4=CC(=O)C=C[C@]4(C)[C@@]3(F)[C@@H](O)C[C@@]21C | 
> 46 µM | Nc1nc(=O)c2nc(CNc3ccc(C(=O)N[C@@H](CCC(=O)O)C(=O)O)cc3)cnc2[nH]1 | 
> 46 µM | CN(C)[C@@H]1C(O)=C(C(=O)NCN2CCCC2)C(=O)[C@@]2(O)C(O)=C3C(=O)c4c(O)cccc4[C@@](C)(O)C3C[C@@H]12.Cl (some centres not stated) | 
> 46 µM | CO/N=C(\C(=O)N[C@@H]1C(=O)N2C(C(=O)O)=C(C[N+]3(C)CCCC3)CS[C@H]12)c1csc(N)n1.Cl.O.[Cl-] | 
> 46 µM | Cc1c(N(C)CS(=O)(=O)[O-])c(=O)n(-c2ccccc2)n1C.[Na+] | 
> 46 µM | C[C@@H](O)[C@H]1C(=O)N2C(C(=O)O)=C(S[C@@H]3CN[C@H](CNS(N)(=O)=O)C3)[C@H](C)[C@H]12 | 
> 46 µM | O=[C@@](OCCl)[C@](CC2)(OC(OCC)=O)[C@]1(C)[C@]2([H])[C@@](CCC3=CC4=O)([H])[C@]([C@](C)3C=C4)([H])[C@@H](O)C1 | 
> 46 µM | ClC1=CC=C(\C3=C2/CCNCC2)C(CCC4=C3N=CC=C4)=C1 | 

SMILES | IC50 (NCI-H295R [2]) | maximal response (NCI-H295R [1])
CCCN1CCC[C@H](c2cccc(O)c2)C1.Cl | > 46 µM | 
Nc1ccc(N)cc1 | > 46 µM | 
CCN(CC)C(=O)N[C@H]1C[C@@H]2c3cccc4[nH]cc(c34)C[C@H]2N(C)C1 | > 46 µM | 
NC1=NC(=O)N2CC12 (configuration not stated) | > 46 µM | 
